Drawing on US20220324835A1 (Nurix Therapeutics, Inc., priority 2018, published 2022), this text covers fold induction and IC50 for five molecules.

Experiment [1] relates to T-cell. The experiment can be described thus: IL-2 secretion from T-cells co-stimulated with anti-CD3 and anti-CD28 antibody (Biological Example 2). The experiment is classed as cell-based, human. As to conditions: Homo sapiens, T-cell, fold change over baseline (anti-CD3/anti-CD28 stimulated T-cells without inhibitor), read-out: IL-2 secretion Anti-CD3/Anti-CD28 stimulation; for fold induction at 0.3 µM: 0.3 μM Cbl-b inhibitor; for fold induction at 1 µM: 1 μM Cbl-b inhibitor. An outline of the steps:
(§1)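 Values are fold-change over baseline: readings (IL-2 release, CD25 staining) from inhibitor-treated T-cells divided against untreated cells […]. No detailed procedure stated.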

Experiment [2] has as its system T-cell. Put plainly: CD25 cell surface staining on T-cells co-stimulated with anti-CD3 and anti-CD28 antibody (Biological Example 2). Format: cell-based, human. The settings on record: Homo sapiens, T-cell, fold change over baseline (anti-CD3/anti-CD28 stimulated T-cells without inhibitor), read-out: CD25 staining Anti-CD3/Anti-CD28 stimulation; for fold induction at 0.3 µM: 0.3 μM Cbl-b inhibitor; for fold induction at 1 µM: 1 μM Cbl-b inhibitor. In a few lines:
as §1

Experiment [3] concerns T-cell. Put plainly: IL-2 secretion from T-cells stimulated with anti-CD3 antibody alone (Biological Example 2). Format: cell-based, human. As to conditions: Homo sapiens, T-cell; 1 μM Cbl-b inhibitor; fold change over baseline (anti-CD3/anti-CD28 stimulated T-cells without inhibitor); read-out: IL-2 secretion Anti-CD3 stimulation.
For experiment [4], the target named is T1, Cbl-b (Homo sapiens, UniProt Q13191). The experiment can be described thus: Cbl-b activity assay (Cbl-b inhibition assay), TR-FRET of Cbl-b interaction with UbcH5B-Ub. Format: biochemical. As to conditions: assay buffer with 100 mM NaCl, 60 nM Src kinase; read-out: Cbl-b activity IC50. An outline of the steps:
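Compound-treated Cbl-b was incubated 1.5 h with Src kinase (60 nM final; 30 nM for asterisked values, which also used 50 mM instead of 100 mM NaCl), 1 mM ATP and 5 mM MgCl2. Binding to fluorescent Ub-loaded UbcH5B (C85K mutant) was then read by TR-FRET after 1 h more.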

Experiment [5] addresses T1, Cbl-b. Put plainly: Cbl-b inhibition assay (Cbl-b activity assay, FRET, Biological Example 1; 100 mM NaCl, 60 nM Src kinase). Format: biochemical. The settings on record: upper bound stated in text lists; read-out: IC50 values in the Cbl-b inhibition assay of Biological Example 1. An outline of the steps: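 N-terminally biotinylated Avi-tagged Cbl-b was mixed with Src kinase, UbcH5B covalently conjugated to Bodipy-fluorescein ubiquitin, and streptavidin-terbium. Src phosphorylation lets Cbl-b bind UbcH5B-Ub, giving terbium-fluorescein FRET; inhibition is read as loss of FRET signal.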

Experiment [6] relates to T-cell. Put plainly: CD25 cell surface staining on T-cells stimulated with anti-CD3 antibody alone (Biological Example 2). The experiment is classed as cell-based, human. The settings on record: Homo sapiens, T-cell; 1 μM Cbl-b inhibitor; fold change over baseline (anti-CD3/anti-CD28 stimulated T-cells without inhibitor); read-out: CD25 staining Anti-CD3 stimulation.

A value given as a limit tells only on which side of the number the result lay.

T1 sequence (Q13191 36-427): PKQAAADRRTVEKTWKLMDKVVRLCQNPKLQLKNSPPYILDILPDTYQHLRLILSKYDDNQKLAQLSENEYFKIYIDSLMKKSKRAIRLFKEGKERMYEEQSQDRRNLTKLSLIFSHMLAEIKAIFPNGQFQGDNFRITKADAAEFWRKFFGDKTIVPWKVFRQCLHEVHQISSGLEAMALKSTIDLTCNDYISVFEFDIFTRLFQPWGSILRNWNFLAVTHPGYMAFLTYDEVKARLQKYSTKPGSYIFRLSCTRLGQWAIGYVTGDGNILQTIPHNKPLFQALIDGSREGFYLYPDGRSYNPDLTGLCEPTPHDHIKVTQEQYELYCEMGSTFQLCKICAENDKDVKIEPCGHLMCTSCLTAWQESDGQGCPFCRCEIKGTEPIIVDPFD

In the case of `Cn1cnnc1CC1(c2cccc(N3Cc4c(cc(C(N5CCCC5)C(F)(F)F)cc4C(F)(F)F)C3=O)c2)COC1` (stereo not shown) [Example 581, 2-(3-(3-((4-Methyl-4H-1,2,4-triazol-3-yl)methyl)oxetan-3-yl)phenyl)-6-(2,2,2-trifluoro-1-(pyrrolidin-1-yl)ethyl)-4-(trifluoromethyl)isoindolin-1-one], the fold induction at 0.3 µM in experiment [1] lay in the range of 1.01 to 2.5; in experiment [2], 1.01 to 1.3. In addition, the fold induction at 1 µM was 2.51 to 5 in experiment [1], 1.31 to 1.5 in experiment [2], 0.051 to 0.1 in experiment [3] and 0.801 to 1 in experiment [6]. For the same molecule, the results for the IC50 in experiment [4] and in experiment [5] were < 0.1 µM and ≤ 0.1 µM, respectively.
As for `Cn1cnnc1CC1(c2cccc(N3Cc4c(cc(N5CCNC6(CC6)C5)cc4C(F)(F)F)C3=O)c2)COC1` [Example 582, 2-(3-(3-((4-Methyl-4H-1,2,4-triazol-3-yl)methyl)oxetan-3-yl)phenyl)-6-(4,7-diazaspiro[2.5]octan-7-yl)-4-(trifluoromethyl)isoindolin-1-one], the values for the fold induction at 0.3 µM in experiment [1] and in experiment [2] were > 7.5 and 1.31 to 1.5, respectively. For the same molecule, the fold induction at 1 µM in experiment [1] was > 7.5; in experiment [2], 1.31 to 1.5; in experiment [3] it was 0.101 to 0.15; in experiment [6], > 1. Besides, the IC50 in experiment [4] was < 0.1 µM; in experiment [5] it was ≤ 0.1 µM.
As to `CN1CCN(c2cc3c(c(C(F)(F)F)c2)CN(c2cccc(C4(Cc5nncn5C)COC4)c2)C3=O)CC12CC2` [Example 583, 2-(3-(3-((4-Methyl-4H-1,2,4-triazol-3-yl)methyl)oxetan-3-yl)phenyl)-6-(4-methyl-4,7-diazaspiro[2.5]octan-7-yl)-4-(trifluoromethyl)isoindolin-1-one], the fold induction at 0.3 µM fell in the range of 2.51 to 5 in experiment [1] and 1.31 to 1.5 in experiment [2]. The fold induction at 1 µM was 5 to 7.5 in experiment [1], 1.51 to 1.75 in experiment [2], 0.151 to 0.2 in experiment [3] and > 1 in experiment [6]. Also, the figures for the IC50 in experiment [4] and in experiment [5] were < 0.1 µM and ≤ 0.1 µM, respectively.
In the case of `CC(c1cc2c(c(C3CC3)n1)CN(c1cccc(C3(Cc4nncn4C)COC3)c1)C2=O)N1CCCC1` (stereo not drawn) [Example 584, 4-Cyclopropyl-2-(3-(3-((4-methyl-4H-1,2,4-triazol-3-yl)methyl)oxetan-3-yl)phenyl)-6-(l-(pyrrolidin-1-yl)ethyl)-2,3-dihydro-1H-pyrrolo[3,4-c]pyridin-1-one], the fold induction at 0.3 µM lay within 1.01 to 2.5 in experiment [1] and 1.01 to 1.3 in experiment [2]. Further, the fold induction at 1 µM in experiment [1] was 2.51 to 5; in experiment [2] it was 1.01 to 1.3; in experiment [3] it was < 0.05; in experiment [6] it was 0.601 to 0.8. For the same molecule, the IC50 in experiment [4] is < 0.1 µM; in experiment [5], ≤ 0.1 µM.
Consider `CC(c1cc2c(c(C3CC3)n1)CN(c1cccc(C3(Cc4nncn4C)COC3)c1)C2=O)N1CCC2(CC2)C1` (stereo not shown) [Example 585, 6-(1-(5-Azaspiro[2.4]heptan-5-yl)ethyl)-4-cyclopropyl-2-(3-(3-((4-methyl-4H-1,2,4-triazol-3-yl)methyl)oxetan-3-yl)phenyl)-2,3-dihydro-1H-pyrrolo[3,4-c]pyridin-1-one], for which the fold induction at 0.3 µM in experiment [1] was in the range of 2.51 to 5; in experiment [2], 1.01 to 1.3. For the same molecule, the fold induction at 1 µM lay within 5 to 7.5 in experiment [1], 1.01 to 1.3 in experiment [2], 0.051 to 0.1 in experiment [3] and 0.801 to 1 in experiment [6]. Also, the IC50 in experiment [4] was < 0.1 µM; in experiment [5] it was ≤ 0.1 µM.
